Assays:
Type in all cases: cell-based
T47D cells = test: Cell viability assay ([…]-GLO, 6-day treatment); settings: Homo sapiens, 144 h, 6 days, CTG, read-out: Inhibition of Cancerous Cells IC50 T47D
Method: (§1) A compound provided herein was evaluated for its anticancer activity in MCF7 and T47D cells. MCF7 and T47D cells were cultured at 37° C. in a humidified 5% C02 environment in MEM or RPMI, supplemented with 10% FBS with insulin, respectively. The cells were plated in 384-well microplates at a density of 1,000 cells per well in their respective maintenance media. The cells were treated with the compound by a 10-point dose response curve for 6 days, during which, the medium and compound were refreshed once. After the 6-day treatment, the cell viability was assessed using […]-GLO (CTG) reagent. Luminescence was measured with a microplate reader.

MCF7 cells = test: Cell viability assay ([…]-GLO, 6-day treatment); settings: Homo sapiens, MCF7, 144 h; MCF-7 cells, 6 days, CTG; read-out: Inhibition of Cancerous Cells IC50 MCF-7
Method: as §1

ERα = target: T1, ERα (Homo sapiens, UniProt P03372); test: Protein degradation assay: ERα in MCF-7 cells via western blot; settings: 6 h; for ERα Protein Degradation 1 nM: 1 nM compound; for ERα Protein Degradation 10 nM: 10 nM compound; for ERα Protein Degradation 100 nM: 100 nM compound
T1 construct: degrading an ERα in MCF-7 cells via a western blot; endogenous in cells; host or cells: MCF-7
T1 sequence (P03372 1-595): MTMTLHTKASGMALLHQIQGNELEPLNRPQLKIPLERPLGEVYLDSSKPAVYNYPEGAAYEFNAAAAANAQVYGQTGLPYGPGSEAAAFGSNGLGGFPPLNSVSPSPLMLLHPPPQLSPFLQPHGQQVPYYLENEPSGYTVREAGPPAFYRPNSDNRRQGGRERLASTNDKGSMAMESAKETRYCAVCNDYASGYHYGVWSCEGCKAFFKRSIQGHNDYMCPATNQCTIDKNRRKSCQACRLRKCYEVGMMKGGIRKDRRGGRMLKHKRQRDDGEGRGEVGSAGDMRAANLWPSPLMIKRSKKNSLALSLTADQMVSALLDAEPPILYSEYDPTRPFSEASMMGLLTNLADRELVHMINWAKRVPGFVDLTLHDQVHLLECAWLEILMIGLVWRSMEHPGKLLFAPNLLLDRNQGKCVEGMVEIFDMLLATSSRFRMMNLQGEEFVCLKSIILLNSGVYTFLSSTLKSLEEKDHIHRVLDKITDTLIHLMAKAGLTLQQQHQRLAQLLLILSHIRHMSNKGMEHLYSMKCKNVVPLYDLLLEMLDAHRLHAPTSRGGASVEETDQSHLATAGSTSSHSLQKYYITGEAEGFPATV
Method: A compound provided herein was assessed for its activity in degrading an ERα in MCF-7 cells via a western blot. The MCF7 cells were cultured at 37° C. in a humidified 5% C02 environment in MEM supplemented with 10% FBS with insulin. The cells were seeded in 12-well plates at a density of 300,000 cells per well in maintenance media. Cells were treated with the compound at predetermined concentrations (e.g., 1 nM, 10 nM, 100 nM, and 1 μM) for 6 h. The cells were then washed in PBS and the whole cells were lysed in a cell lysis buffer and incubated for 15 minutes on ice. Cell debris was removed by high-speed centrifugation and the cleared whole cell lysates were prepared for further analysis by a western blot. The whole cell protein extracts were separated on SDS-polyacrylamide gels, transferred to nitrocellulose membranes, and probed with primary antibodies, including anti-ERα antibody and GAPDH antibody for loading control. The membranes were subsequently washed and probed with secondary antibodies for chemiluminescence, followed by imaging on a BIORAD CHEMIDOC Imaging System. The results are summarized in Table 2, where “A” represents a percentage degradation value of no less than 50%; “B” represents a percentage degradation value of less than 50% and no less than 25%; “C” represents a percentage degradation value of less than 25% and no less than 10%; and “D” represents a percentage degradation value of less than 10%.

Row | SMILES | IC50 (T47D cells) [nM] | IC50 (MCF7 cells) [nM] | ERα Protein Degradation 1 nM (ERα) | ERα Protein Degradation 10 nM (ERα) | ERα Protein Degradation 100 nM (ERα)
1 | O=C1CCC(N2Cc3c(cc(F)cc3C3CCN(CC4CCN(c5ccc([C@@H]6c7ccc(O)cc7CC[C@@H]6c6ccccc6)cc5)CC4)CC3)C2=O)C(=O)N1 (stereo partly drawn) [Compound A3, 3-(6-Fluoro-4-(1-((1-(4-((1R,2S)-6-hydroxy-2-phenyl-1,2,3,4-tetrahydro-naphthalen-1-yl)phenyl)piperidin-4-yl)methyl)piperidin-4-yl)-1-oxoisoindolin-2-yl)piperidine-2,6-dione] | 0.44 | 0.2 | D (a percentage degradation value of less than 10%) | D (a percentage degradation value of less than 10%) | D (a percentage degradation value of less than 10%)
2 | O=C1CCC(N2Cc3c(csc3COc3ccc(CNCCCCCOc4ccc([C@@H]5c6ccc(O)cc6CC[C@@H]5c5ccccc5)cc4)cc3)C2=O)C(=O)N1 (stereo partly drawn) [Compound A9, 3-(1-((4-(((5-(4-((1R,2S)-6-hydroxy-2-phenyl-1,2,3,4-tetrahydronaphthalen-1-yl)phenoxy)pentyl)amino)methyl)phenoxy)methyl)-4-oxo-4H-thieno[3,4-c]pyrrol-5(6H)-yl)piperidine-2,6-dione] |  | 1.4 | B (a percentage degradation value of less than 50% and no less than 25%) | B (a percentage degradation value of less than 50% and no less than 25%) | B (a percentage degradation value of less than 50% and no less than 25%)
3 | O=C1CCC(N2Cc3sc(C4CCN(CC5CCN(c6ccc([C@@H]7c8ccc(O)cc8CC[C@@H]7c7ccccc7)cc6)CC5)CC4)cc3C2=O)C(=O)N1 (stereo partly drawn) [Compound A10, 3-(2-(1-((1-(4-((1R,2S)-6-hydroxy-2-phenyl-1,2,3,4-tetrahydronaphthalen-1-yl)phenyl)piperidin-4-yl)methyl)piperidin-4-yl)-4-oxo-4,6-dihydro-5H-thieno[2,3-c]pyrrol-5-yl)piperidine-2,6-dione] |  | 0.82 | D (a percentage degradation value of less than 10%) | D (a percentage degradation value of less than 10%) | D (a percentage degradation value of less than 10%)

More lines, main results first:

Row | IC50 (T47D cells) [nM] | IC50 (MCF7 cells) [nM] | SMILES | ERα Protein Degradation 1 nM (ERα) | ERα Protein Degradation 10 nM (ERα) | ERα Protein Degradation 100 nM (ERα)
4 | 1.2 | 0.73 | O=C1CCC(Nc2cccc(NC3CCN(CC4CCN(c5ccc([C@@H]6c7ccc(O)cc7CC[C@@H]6c6ccccc6)cc5)CC4)CC3)c2)C(=O)N1 (stereo partly drawn) [Compound B14, 3-((3-((1-((1-(4-((1R,2S)-6-hydroxy-2-phenyl-1,2,3,4-tetrahydronaphthalen-1-yl)phenyl)piperidin-4-yl)methyl)piperidin-4-yl)amino)phenyl)amino)piperidine-2,6-dione] | D (a percentage degradation value of less than 10%) | D (a percentage degradation value of less than 10%) | D (a percentage degradation value of less than 10%)
5 | 0.25 | 0.45 | Cc1c(-c2ccc(O)cc2)n(Cc2ccc(OCCCCN3CCN(c4ccc5c(c4)CN(C4CCC(=O)NC4=O)C5=O)CC3)cc2)c2ccc(O)cc12 (stereo not drawn) [Compound E2, 3-(5-(4-(4-(4-((5-Hydroxy-2-(4-hydroxyphenyl)-3-methyl-1H-indol-1-yl)methyl)-phenoxy)butyl)piperazin-1-yl)-1-oxoisoindolin-2-yl)piperidine-2,6-dione] | D (a percentage degradation value of less than 10%) | D (a percentage degradation value of less than 10%) | D (a percentage degradation value of less than 10%)
6 | 0.49 | 1.7 | O=C1CCN(c2cccc(OCC(=O)N3CCN(CCCCOc4ccc([C@@H]5c6ccc(O)cc6CC[C@@H]5c5ccccc5)cc4)CC3)c2)C(=O)N1 [Compound B9, 1-(3-(2-(4-(4-(4-((1R,2S)-6-hydroxy-2-phenyl-1,2,3,4-tetrahydronaphthalen-1-yl)phenoxy)butyl)piperazin-1-yl)-2-oxoethoxy)phenyl)dihydropyrimidine-2,4(1H,3H)-dione] | D (a percentage degradation value of less than 10%) | D (a percentage degradation value of less than 10%) | D (a percentage degradation value of less than 10%)
7 | 0.76 | 1.6 | O=C1CCN(c2ccc(OCC(=O)N3CCN(CCCCOc4ccc([C@@H]5c6ccc(O)cc6CC[C@@H]5c5ccccc5)cc4)CC3)cc2)C(=O)N1 [Compound B10, 1-(4-(2-(4-(4-(4-((1R,2S)-6-hydroxy-2-phenyl-1,2,3,4-tetrahydronaphthalen-1-yl)phenoxy)butyl)piperazin-1-yl)-2-oxoethoxy)phenyl)dihydropyrimidine-2,4(1H,3H)-dione] | D (a percentage degradation value of less than 10%) | D (a percentage degradation value of less than 10%) | D (a percentage degradation value of less than 10%)
8 | 84 |  | Cn1nc(C2CCC(=O)NC2=O)c2cccc(OCC(=O)N3CCN(CCCCOc4ccc(CC5(C)C(c6ccc(O)cc6)=Nc6ccc(O)cc65)cc4)CC3)c21 (stereo not drawn) [Compound D4, 3-(7-(2-(4-(4-(4-((5-hydroxy-2-(4-hydroxyphenyl)-3-methyl-3H-indol-3-yl)-methyl)phenoxy)butyl)piperazin-1-yl)-2-oxoethoxy)-1-methyl-1H-indazol-3-yl)piperidine-2,6-dione] | D (a percentage degradation value of less than 10%) | D (a percentage degradation value of less than 10%) | C (a percentage degradation value of less than 25% and no less than 10%)
9 |  | 0.99 | Cn1nc(C2CCC(=O)NC2=O)c2ccc(OCC(=O)N3CCN(CC4CCN(c5ccc([C@@H]6c7ccc(O)cc7CC[C@@H]6c6ccccc6)cc5)CC4)CC3)cc21 (stereo partly drawn) [Compound B27, 3-(6-(2-(4-((1-(4-((1R,2S)-6-Hydroxy-2-phenyl-1,2,3,4-tetrahydronaphthalen-1-yl)phenyl)piperidin-4-yl)methyl)piperazin-1-yl)-2-oxoethoxy)-1-methyl-1H-indazol-3-yl)-piperidine-2,6-dione] | D (a percentage degradation value of less than 10%) | B (a percentage degradation value of less than 50% and no less than 25%) | D (a percentage degradation value of less than 10%)
10 |  | 1.2 | Cn1nc(C2CCC(=O)NC2=O)c2ccc(N3CCN(CC4CCN(c5ccc([C@@H]6c7ccc(O)cc7CC[C@@H]6c6ccccc6)cc5)CC4)CC3)cc21 (stereo partly drawn) [Compound B25, 3-(6-(4-((1-(4-((1R,2S)-6-Hydroxy-2-phenyl-1,2,3,4-tetrahydronaphthalen-1-yl)-phenyl)piperidin-4-yl)methyl)piperazin-1-yl)-1-methyl-1H-indazol-3-yl)piperidine-2,6-dione] | C (a percentage degradation value of less than 25% and no less than 10%) | B (a percentage degradation value of less than 50% and no less than 25%) | D (a percentage degradation value of less than 10%)

Reference: patent US20240368121A1, “ESTROGEN RECEPTOR DEGRADERS, PHARMACEUTICAL COMPOSITIONS THEREOF, AND THEIR THERAPEUTIC APPLICATIONS” (BioTheryX, Inc., priority 2021, published 2024)
